Legend:
[1] = type: physicochemical; details: room temperature
Experimental: For the experiment, a slurry mixture of forms A, X and Y in cyclohexane was stirred for about 48 hours at room temperature. After about 24 hours, the complete sample was transformed into form A (see FIG. 17).
A polymorphic crystalline form of the compound of Formula 1 was characterized and identified as form A″ The stability of form A at room temperature was confirmed by the slurry experiments at room temperature.

[2] = Conversion of solvate forms upon heating; type: physicochemical
[3] = Skin permeation of [3H]-PEP005, human split-thickness skin; type: in vitro ADME; details: gel ca 0.05% w/w
Experimental: (§1) The rate and extent of absorption of [^3H]-ingenol mebutate over a 24 h exposure period following topical application of the gel to Wistar (WI) rat, Sprague Dawley (SD) rat, Göttingen mini-pig and human split-thickness skin was also assessed.

[4] = Skin permeation of [3H]-PEP005, Wistar rat split-thickness skin; type: in vitro ADME, Wistar (WI) rat
Experimental: as §1

[5] = Skin permeation of [3H]-PEP005, mini-pig split-thickness skin; type: in vitro ADME, Göttingen mini-pig
Experimental: as §1
The maximum hourly flux was 0.44, 0.80, 2.09, and 6.12 ng equiv./cm^2/h for human, mini-pig, SD and WI rat skin, respectively. […] The flux profile for mini-pig was dissimilar to the other species/strains. […] The other three species/strains had similar flux profiles with lag times of ca 1, 2 and 3 h for the human, SD and WI rat skin, respectively. This was followed by steady state flux from 4-24 h, 6-24 h and 8-24 h, respectively. Steady state flux was 0.39, 2.01 and 5.87 ng equiv./cm^2/h for the human, SD and WI rat skin, respectively. […] These differences with the mini-pig group compared to the other three skin groups may have been attributed to the preparation of the split-thickness skin. Due to the hair follicle depth in mini-pig skin, split-thickness skin was prepared at a depth of ca […] compared to ca […] for the other skin groups. Therefore, the thicker layer of dermis for the mini-pig skin may have acted as a reservoir for [3H]-PEP005 prior to partitioning into the receptor fluid.

[6] = Skin permeation of [3H]-PEP005, Sprague Dawley rat split-thickness skin; type: in vitro ADME, Sprague Dawley (SD) rat
Experimental: as §1

[7] = system: rats; experiment: Teratogenicity study, intravenous route, rats; type: in vivo, rat; details: 5 μg/kg/day = 30 μg/m^2/day
Experimental: (§2) Teratogenicity studies with ingenol mebutate were performed by the intravenous route in rats and rabbits.
(§3) In rats, ingenol mebutate was not associated with fetal developmental effects at doses up to 5 μg/kg/day (30 μg/m^2/day).

[8] = system: tumors; experiment: Mouse xenograft models, intratumoral injection; type: in vivo
[9] = system: receptors and enzymes; experiment: Off-target activity in various in vitro assays
[10] = system: rabbits; experiment: Teratogenicity study, intravenous route, rabbits; type: in vivo, rabbit; details: rabbits
Experimental: as §2, §3
(§4) The fetal NOAEL was 1 μg/kg/day (12 μg/m^2/day).

[11] = Teratogenicity study, intravenous route, rabbits; type: in vivo, rabbit; details: female, rabbit, in vivo, 12 μg/m^2/day, read-out: fetal NOAEL
Experimental: as §2, §3, §4

[12] = system: mouse skin; experiment: Application to mouse skin in vivo, inflammatory mediators; details: subclinical concentrations
[13] = In vitro Ames test; type: cell-based
Experimental: (§5) Carcinogenic evaluations of ingenol mebutate have not been conducted. Ingenol mebutate was not mutagenic in an in vitro Ames test, mouse lymphoma assay, and in vivo rat micronucleus test. Ingenol mebutate was positive in the Syrian hamster embryo (SHE) cell transformation assay at concentrations≧0.1 μg/mL.

[14] = system: human cytochrome P450 isoforms; experiment: In vitro cytochrome P450 inhibition/induction; type: in vitro ADME
[15] = system: isolated human keratinocytes; experiment: Exposure of isolated keratinocytes in vitro; type: cell-based; details: subclinical concentrations
[16] = system: Syrian hamster embryo (SHE) cell; experiment: Syrian hamster embryo (SHE) cell transformation assay; type: cell-based
Experimental: as §5

[17] = system: human endothelial cells; experiment: PKC dependent activation of endothelial cells, neutrophil adhesion in vitro; type: cell-based; details: e.g., 10 to 100 ng/mL
From the text: (§6) Ingenol mebutate is a pleiotropic effector that exerts a direct cytotoxic effect on tumor cells and modulates Protein Kinase C (PKC) isoforms.

[18] = system: skin; experiment: UV irradiation studies (photoirritation, photoallergy); type: in vivo; details: ingenol mebutate 0.01%, single and multiple applications
From the text: Studies have been conducted to assess the effects of UV irradiation on the skin following single and multiple applications of ingenol mebutate, 0.01%. […] However, excessive exposure to sunlight (including sunlamps and tanning beds) should be avoided or minimized during use of TRADEMARK Gel due to the nature of the disease.

[19] = system: mouse lymphoma; experiment: Mouse lymphoma assay; type: cell-based
Experimental: as §5

[20] = system: skin cancer cells; details: via rapid mitochondrial disruption and primary necrosis; normal cells less sensitive; cited from earlier work
[21] = system: squamous cell carcinoma and melanoma tumor; experiment: Mouse xenograft squamous cell carcinoma and melanoma tumor models, topical; type: in vivo
[22] = system: tumor cells; experiment: Direct cytotoxic effect at high concentrations; type: cell-based; details: e.g., 100 μg/mL
From the text: as §6

[23] = system: rat; experiment: In vivo rat micronucleus test
Experimental: as §5

[24] = Stress milling (mortar and pestle); type: physicochemical; details: manual grinding about 2, 5 and 10 mins
Experimental: Crystalline ingenol mebutate is subjected to stress milling to investigate its physico-chemical stability. In the study, crystalline ingenol mebutate is manually ground using a mortar and pestle for durations of about 2, about 5 and about 10 mins.
Crystalline ingenol mebutate was subjected to stress milling (manually using a mortar and pestle) for durations of about 2, about 5 and about 10 mins.

[25] = WI rat skin vs human skin, % applied dose
[26] = Wistar Rat skin, gel ca 0.05% w/w
[27] = Mini-Pig skin, gel ca 0.05% w/w, NO = not observed
[28] = mini-pig skin vs human skin, % applied dose
[29] = mini-pig skin, gel ca 0.05% w/w
[30] = SD rat skin vs human skin, % applied dose
[31] = Sprague Dawley Rat skin, gel ca 0.05% w/w

C/C=C(/C)C(=O)O[C@H]1C(C)=C[C@]23C(=O)[C@@H](C=C(CO)[C@@H](O)[C@]12O)[C@H]1[C@@H](C[C@H]3C)C1(C)C [form X, ingenol mebutate]
time to conversion to form A in slurry ([1]; slurry of forms A, X and Y in c-hexane): about 24 hours
behaviour upon heating [2]: converted into form A upon heating

C/C=C(/C)C(=O)O[C@H]1C(C)=C[C@]23C(=O)[C@@H](C=C(CO)[C@@H](O)[C@]12O)[C@H]1C(C[C@H]3C)C1(C)C (stereo in doubt) [[^3H]-ingenol mebutate]
Lag Time [3]: ~1 h
Period of Steady State Flux [3]: 4 to 24 h
Steady State Flux [3]: 0.39 ng equiv./cm^2/h
maximum hourly flux [3]: 0.44 ng equiv./cm^2/h
time post dose at which maximum flux was achieved [3]: 16 h
Unabsorbed Dose ([3]; 24 h exposure): 101.09 % Applied Dose
steady state flux compared to human skin, fold greater ([4]; WI rat skin vs human skin): ~15.1 fold
dermal delivery compared to human skin, fold greater [4, 25]: ~9.2 fold
total absorption compared to human skin, fold greater [4, 25]: ~13.8 fold
maximum hourly flux ([4]; WI rat skin, gel ca 0.05% w/w): 6.12 ng equiv./cm^2/h
time post dose at which maximum flux was achieved ([4]; WI rat skin, gel ca 0.05% w/w): 16 h
Lag Time [4, 26]: ~3 h
Period of Steady State Flux [4, 26]: 8 to 24 h
Steady State Flux [4, 26]: 5.87 ng equiv./cm^2/h
Unabsorbed Dose ([4]; Wistar Rat skin, gel ca 0.05% w/w, 24 h exposure): 90.31 % Applied Dose
Unabsorbed Dose ([5]; Mini-Pig skin, gel ca 0.05% w/w, 24 h exposure): 93.35 % Applied Dose
Lag Time [5, 27]: no apparent lag time
Steady State Flux [5, 27]: no apparent lag time or steady state flux observed
dermal delivery compared to human skin, fold greater [5, 28]: ~7.9 fold
total absorption compared to human skin, fold less [5, 28]: ~1.4 fold
maximum hourly flux [5, 29]: 0.80 ng equiv./cm^2/h
time post dose at which maximum flux was achieved [5, 29]: 1 h
steady state flux compared to human skin, fold greater ([6]; SD rat skin vs human skin): ~5.2 fold
dermal delivery compared to human skin, fold greater [6, 30]: ~5.1 fold
total absorption compared to human skin, fold greater [6, 30]: ~4.9 fold
maximum hourly flux ([6]; SD rat skin, gel ca 0.05% w/w): 2.09 ng equiv./cm^2/h
Lag Time [6, 31]: ~2 h
Period of Steady State Flux [6, 31]: 6 to 24 h
Steady State Flux [6, 31]: 2.01 ng equiv./cm^2/h
Unabsorbed Dose ([6]; Sprague Dawley Rat skin, gel ca 0.05% w/w, 24 h exposure): 94.40 % Applied Dose

C/C=C(/C)C(=O)O[C@H]1C(C)=C[C@]23C(=O)[C@@H](C=C(CO)[C@@H](O)[C@]12O)[C@H]1[C@@H](C[C@H]3C)C1(C)C [ingenol mebutate, (1 aR,2S,5R,5aS,6S,8aS,9R,10aR)-5,5a-dihydroxy-4-(hydroxymethyl)-1,1,7,9-tetramethyl-11-oxo-1a,2,5,5a,6,9,10,10a-octahydro-1H2,8a-methanocyclopenta[a]cyclopropa[e]cyclodecen-6-yl(2Z)-2-methylbut-2-enoate]
doses not associated with fetal developmental effects [7]: up to 5 μg/kg/day
immune response after intratumoral injection [8]: stimulated a tumor-specific CD8+T cell response with anti-tumor activity against distant secondary tumors
off-target activity [9]: did not inhibit or stimulate receptors and enzymes
Lag Time [3]: 1 h
Period of Steady State Flux [3]: 4.24 h
Steady State Flux [3]: 0.39 ng equiv./cm^2/h
doses at which maternal toxicity (increased breathing) was observed ([10]; 1 μg/kg/day = 12 μg/m^2/day): ≥ 1 µg/kg/day
doses with slight increase in incidence of incompletely ossified cervical vertebral arches ([10]; 2 μg/kg/day = 24 μg/m^2/day): ≥ 2 µg/kg/day
embryo-fetal findings ([10]; 4 μg/kg/day (48 μg/m^2/day), marginal, not statistically significant): slight increase in embryonic deaths, an increase in jugular fusion to the maxilla and a variation in the origin of arteries arising from the aortic arch
NOAEL [11]: 0.001 mg/kg/day
release of inflammatory mediators in mouse skin [12]: induced the release of inflammatory mediators IL-8/MIP-2 and TNF-α resulting in neutrophil recruitment and activation
mutagenicity [13]: not mutagenic
Lag Time [4, 26]: 3 h
Period of Steady State Flux [4, 26]: 8.24 h
Steady State Flux [4, 26]: 5.87 ng equiv./cm^2/h
inhibition or induction of cytochrome P450 isoforms [14]: does not inhibit or induce human cytochrome P450 isoforms
effect on keratinocytes [15]: cytokine release and specific PKC-mediated neutrophil activation
concentrations positive in SHE cell transformation assay ([16]; Syrian hamster, Syrian hamster embryo (SHE) cells): ≥ 100 ng/mL
cell transformation result ([16]; concentrations≧0.1 μg/mL): positive
effect on endothelial cells at subclinical concentrations [17]: stimulates PKC dependent activation of human endothelial cells to support neutrophil adhesion
photoirritation or photoallergy effects [18]: did not demonstrate any potential for photoirritation or photoallergy effects
mutagenicity [19]: not mutagenic
toxicity for skin cancer cells [20]: highly toxic
effect on tumors [21]: removes tumors and prevents tumor recurrence
effect on cells at high concentrations [22]: induces mitochondrial swelling and loss of cell membrane integrity leading to cell death
Lag Time [6, 31]: 2 h
Period of Steady State Flux [6, 31]: 6.24 h
Steady State Flux [6, 31]: 2.01 ng equiv./cm^2/h
mutagenicity [23]: not mutagenic

C/C=C(/C)C(=O)O[C@H]1C(C)=C[C@]23C(=O)[C@@H](C=C(CO)[C@@H](O)[C@]12O)[C@H]1[C@@H](C[C@H]3C)C1(C)C [form A, ingenol mebutate]
relative stability of forms A, X and Y [1]: most stable form at room temperature
physico-chemical stability on milling [24]: remained unaltered

— patent US20140249218A1, “ADMINISTRATION OF INGENOL MEBUTATE” (LEO Laboratories Limited, priority 2013, published 2014)
